Measured values taken from publication PMC8151276, “An Integrated Approach toward NanoBRET Tracers for Analysis of GPCR Ligand Engagement” (Molecules, 2021).

Columns and labels:
[1] = target: T1, GNRHR (Homo sapiens, UniProt P30968); assay: NanoBRET screen HiBiT-GNRHR in HEK293; type: binding; conditions: GNRHR
T1 construct: purchased Promega (in-house HiBiT-GPCR construct library, NanoBRET)
T1 sequence (P30968 1-328): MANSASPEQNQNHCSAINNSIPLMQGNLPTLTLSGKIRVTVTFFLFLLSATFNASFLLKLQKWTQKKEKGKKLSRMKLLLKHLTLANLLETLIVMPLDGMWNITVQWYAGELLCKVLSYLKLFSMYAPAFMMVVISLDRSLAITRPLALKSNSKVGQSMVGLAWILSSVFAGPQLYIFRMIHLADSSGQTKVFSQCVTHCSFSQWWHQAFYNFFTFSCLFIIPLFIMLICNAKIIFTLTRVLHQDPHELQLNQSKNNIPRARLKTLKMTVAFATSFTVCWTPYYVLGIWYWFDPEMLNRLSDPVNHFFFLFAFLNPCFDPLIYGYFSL
Protocol: Each tracer candidate was screened across the entire library of HiBiT-GPCR constructs using NanoBRET as the detection modality. As depicted in Figure 4A, the specificity of interactions was evaluated through decrease in BRET due to competitive displacement of a bound tracer by excess parental compound. Each tracer was analyzed for binding to each HiBiT-GPCR fusion in the absence and in the presence of competing parental compound. Briefly, HEK293 cells were transfected with HiBiT-GPCR constructs diluted into promoterless DNA to reduce expression and maximize translocation to the cell surface. Each tracer candidate was then screened at concentrations of 1 μM and 0.1 μM across cells expressing these fusions. Cells were treated for 1.5 h with tracer either alone or in the presence of 20 μM competing parental compound (i.e., control). BRET was measured upon addition of purified LgBiT and subsequent complementation with HiBiT genetically fused to a GPCR. The specificity of interactions was assessed through a decrease in BRET signal due to competitive displacement of the bound tracer. To further gauge the robustness of these interactions, the fold response over the control (i.e., BRETtracer/BRETcontrol) was calculated. We chose a 1.5-fold response, which translates to ≥7-fold signal over noise as the minimal threshold required to score an interaction as positive. […]. Below we highlight the screening results obtained for our exemplary fluorescent tracers based on Clozapine, Amitriptyline and AZD1283.
HiBiT-GPCR DNA constructs were diluted in 10 mM Tris pH 8 to a final concentration of 0.01 μg/μL, arrayed in 96-well plates and stored at −20 °C. For transfection, HEK293 cells were suspended in Opti-MEM (without phenol red) supplemented with 2% fetal bovine serum (Seradigm) and 100 units/mL penicillin–streptomycin (Gibco) at a final concentration of 220,000 cells/mL and dispensed into white 96-well plates at 90 μL/well. Subsequent transfections and screens were carried using an Agilent Bravo Automated Liquid Handling Platform. First, the 96-well HiBiT DNA arrays were diluted 25-fold in Opti-MEM (without serum or phenol red) to a final concentration of 0.0004 μg/μL and 20 μL of the diluted DNAs were transferred into new 96-well plates. Next, promoterless carrier DNA (1 μg/μL) was diluted 25-fold (0.04 μg/μL) and then dispensed into the diluted arrays at 20 μL/well. Following brief mixing, Viafect transfection reagent (Promega) diluted 16-fold into Opti-MEM was dispensed into the plates at 40 μL/well. After mixing by pipetting, plates were incubated for 10 min on the pipetting station deck. The DNA-transfection reagent complexes were then added to plates containing cells. To facilitate the screen, 10 μL of DNA-transfection reagent complexes were added in duplicates to the top 4 and bottom 4 rows, resulting in two identical 48-well arrays per plate. Plates with transfected cells were incubated for 18–20 h at 37 °C/5% CO2. A screen of each tracer across the entire library using two different concentrations requires duplicate plates of transfected cells. Depending on the number of tracers being screened, transfections can be scaled up using the same ratios. The next day, for each tracer, four 20× screening solutions in tracer dilution buffer (Promega) were prepared: two duplicates at final concentration of 20 μM and two duplicates at a final concentration of 2 μM. A competing unmodified compound was added to one of each duplicate at a final concentration of 400 μM. The four resulting solutions were diluted 4-fold in Opti-MEM without serum or phenol red to generate 5× solutions (5 µM and 0.5 µM tracer +/− 100 μM competing compound). To screen the library, a BioTek MultiFlo FX liquid dispenser was used to dispense 22.5 µL of tracer solution to the top 4 rows and 22.5 µL tracer + competing compound solution to the 4 bottom rows. Plates were briefly mixed on an orbital shaker and incubated for 1.5 h at room temperature. […]

[2] = target: T2, ADRB1 (Homo sapiens, UniProt P08588); assay: NanoBRET screen HiBiT-ADRB1 in HEK293; type: binding; conditions: ADRB1
T2 construct: purchased Promega (in-house HiBiT-GPCR construct library, NanoBRET)
T2 sequence (P08588 whole entry): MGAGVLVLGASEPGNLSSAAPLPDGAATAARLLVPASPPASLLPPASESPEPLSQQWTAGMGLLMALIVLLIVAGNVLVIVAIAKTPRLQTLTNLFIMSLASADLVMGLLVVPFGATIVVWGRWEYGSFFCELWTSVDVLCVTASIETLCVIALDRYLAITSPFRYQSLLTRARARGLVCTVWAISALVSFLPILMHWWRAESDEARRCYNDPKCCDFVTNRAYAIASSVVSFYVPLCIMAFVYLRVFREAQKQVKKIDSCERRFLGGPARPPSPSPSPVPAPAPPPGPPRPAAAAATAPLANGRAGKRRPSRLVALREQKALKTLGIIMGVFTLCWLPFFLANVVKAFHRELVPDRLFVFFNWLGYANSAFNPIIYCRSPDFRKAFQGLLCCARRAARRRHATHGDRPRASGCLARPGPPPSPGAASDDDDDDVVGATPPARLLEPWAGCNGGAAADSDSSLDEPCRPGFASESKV

SMILES | NanoBRET Fold Response ([1]; tracer 0.1μM) | NanoBRET Fold Response ([1]; tracer 1μM) | NanoBRET Fold Response ([2]; tracer 0.1μM) | NanoBRET Fold Response ([2]; tracer 1μM)
CC(C)N(CC[C@H](c1ccccc1)c1cc(CCNC(=O)c2ccc(CNC(=O)CCc3ccc4n3[B-](F)(F)[N+]3=C(c5ccc[nH]5)C=CC3=C4)cc2)ccc1O)C(C)C [Tolterodine-BZ-NB590] | 1.03 | 1.07 | 1.02 | 1.10
CCCn1c(=O)c2[nH]c(-c3ccc(OCC(=O)NCCNC(=O)CCOCCNC(=O)c4ccc(CNC(=O)CCc5ccc6n5[B-](F)(F)[N+]5=C(c7ccc[nH]7)C=CC5=C6)cc4)cc3)nc2n(CCC)c1=O [XAC-3-NB590] | 0.94 | 0.98 | 1.07 | 1.05
